One may read the IC50 as the concentration that gives 50% inhibition.

Each structure is given as a SMILES string. Square brackets hold non-standard residues; d marks the D form. Peptide text beside a SMILES is read from it. * marks the point of attachment. hPhe(3-Cl-4-CF3) = N[C@@H](CCc1ccc(C(F)(F)F)c(Cl)c1)C(=O)O; NMePhe(4-CF3) = CN[C@@H](Cc1ccc(C(F)(F)F)cc1)C(=O)O; NMePhe(4-Me) = CN[C@@H](Cc1ccc(C)cc1)C(=O)O; NMeGly(cPent) = CN[C@H](C(=O)O)C1CCCC1; NMeCha = CN[C@@H](CC1CCCCC1)C(=O)O; CH2CONHtBu = CC(C)(C)NC(=O)C*; NMeL = CN[C@@H](CC(C)C)C(=O)O; NMeV = CN[C@H](C(=O)O)C(C)C; d(β3hA) = C[C@@H](N)CC(=O)O; NMeS = CN[C@@H](CO)C(=O)O; NMeA = CN[C@@H](C)C(=O)O; dNMeA = CN[C@H](C)C(=O)O; Ac5c = NC1(C(=O)O)CCCC1; Aze = O=C(O)[C@@H]1CCN1; Ac4c = NC1(C(=O)O)CCC1; CH2CMe2OH = CC(C)(O)C*; NBuGly = CCCCNCC(=O)O; Aib = CC(C)(N)C(=O)O; Isopentyl = CC(C)CC*; NEtG = CCNCC(=O)O; Sar = CNCC(=O)O

The target in this experiment is protein-protein interaction between Kras and SOS1 (biotin-tagged human Kras loaded with GDP, His-tagged human SOS1) (Homo sapiens (Human), UniProt P01116, G12D). In words: Protein-protein interaction inhibition between Kras and SOS1 (KrasG12D-SOS PPI) using AlphaScreen.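 Note: kras produced in E. coli, Ni-coupled donor beads and streptavidin acceptor beads, excitation 680 nm with emission detected at 520–620 nm via singlet oxygen transfer.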 The class given is biochemical. The settings on record: AlphaScreen; biotin-tagged human Kras loaded with GDP, His-tagged human SOS1; read-out: KRAS G12D-SOS PPI IC50. In general terms: In Alpha technology, singlet oxygen from a donor bead excites a nearby acceptor bead.
For `CC[C@H](C)[C@@H]1NC(=O)[C@H](CC(C)C)N(C)C(=O)C[C@@H](C)NC(=O)[C@H](C2CCCC2)N(C)C(=O)C2(CCCC2)NC(=O)[C@@H]2CCCN2C(=O)[C@H](CCc2ccc(C(F)(F)F)c(Cl)c2)NC(=O)[C@@H](C)N(C)C(=O)[C@H](Cc2ccc(C(F)(F)F)cc2)N(C)C(=O)[C@@H]2CCN2C(=O)CN(C)C1=O` [Compound 1468] (cyclo([Ac5c][NMeGly(cPent)][d(β3hA)][NMeL]I[Sar][Aze][NMePhe(4-CF3)][dNMeA][hPhe(3-Cl-4-CF3)]P)), the IC50 came out at 90 nM.

Take `CC[C@H](C)[C@@H]1NC(=O)[C@H](C)N(C)C(=O)C[C@@H](C)NC(=O)[C@H](C2CCCC2)N(C)C(=O)C2(CCCC2)NC(=O)[C@@H]2CCCN2C(=O)[C@H](CCc2ccc(C(F)(F)F)c(Cl)c2)NC(=O)[C@H]2CCCN2C(=O)[C@H](Cc2ccc(C(F)(F)F)cc2)N(C)C(=O)CN(C)C(=O)CN(C)C1=O` [Compound 1470] (cyclo([Ac5c][NMeGly(cPent)][d(β3hA)][NMeA]I[Sar][Sar][NMePhe(4-CF3)][dP][hPhe(3-Cl-4-CF3)]P)): the IC50 was 210 nM.

Consider `CC[C@H](C)[C@@H]1NC(=O)[C@H](CC(C)C)N(C)C(=O)C[C@@H](C)NC(=O)[C@H](C2CCCC2)N(C)C(=O)C2(CCCC2)NC(=O)[C@@H]2CCCN2C(=O)[C@H](CCc2ccc(C(F)(F)F)c(Cl)c2)NC(=O)CN(C)C(=O)[C@H](Cc2ccc(C)cc2)N(C)C(=O)CN(C)C(=O)CN(C)C1=O` [Compound 1471] (cyclo([Ac5c][NMeGly(cPent)][d(β3hA)][NMeL]I[Sar][Sar][NMePhe(4-Me)][Sar][hPhe(3-Cl-4-CF3)]P)), for which the IC50 was 1.7 nM.

Turning to `CCCCN1CC(=O)N(C)CC(=O)N(C)[C@@H](COCCC(C)C)C(=O)N(C)CC(=O)N[C@@H](CCc2ccc(C(F)(F)F)c(Cl)c2)C(=O)N[C@@H](COCC(C)(C)O)C(=O)NC(C)(C)C(=O)N(C)[C@@H](CC(C)C)C(=O)N[C@H](C)CC(=O)N(C)[C@@H](CC(C)C)C(=O)N[C@@H]([C@@H](C)CC)C1=O` [Compound 1473] (cyclo([Aib][NMeL][d(β3hA)][NMeL]I[NBuGly][Sar][NMeS](Isopentyl)[Sar][hPhe(3-Cl-4-CF3)]S(CH2CMe2OH))), the IC50 worked out at 390 nM.

As for `CC[C@H](C)[C@@H]1NC(=O)[C@H](CC(C)C)N(C)C(=O)C[C@@H](C)NC(=O)[C@H](C2CCCC2)N(C)C(=O)C2(CCCC2)NC(=O)[C@@H]2CCCN2C(=O)[C@H](CCc2ccc(C(F)(F)F)c(Cl)c2)NC(=O)CN(C)C(=O)[C@H](Cc2ccc(C(F)(F)F)cc2)N(C)C(=O)[C@@H]2CCN2C(=O)[C@H](C)N(C)C1=O` [Compound 1475] (cyclo([Ac5c][NMeGly(cPent)][d(β3hA)][NMeL]I[NMeA][Aze][NMePhe(4-CF3)][Sar][hPhe(3-Cl-4-CF3)]P)), the IC50 turned out to be 2.7 nM.

As for `CC[C@H](C)[C@@H]1NC(=O)[C@H](CC(C)C)N(C)C(=O)C[C@@H](C)NC(=O)[C@H](C2CCCC2)N(C)C(=O)C2(CCCC2)NC(=O)[C@@H]2CCCN2C(=O)[C@H](CCc2ccc(C(F)(F)F)c(Cl)c2)NC(=O)CN(C)C(=O)[C@H](CC2CCCCC2)N(C)C(=O)[C@@H]2CCN2C(=O)[C@H](C)N(C)C1=O` [Compound 1477] (cyclo([Ac5c][NMeGly(cPent)][d(β3hA)][NMeL]I[NMeA][Aze][NMeCha][Sar][hPhe(3-Cl-4-CF3)]P)), the IC50 came out at 28 nM.

For the molecule `CC[C@H](C)[C@@H]1NC(=O)[C@H](CC(C)C)N(C)C(=O)C[C@@H](C)NC(=O)[C@H](C2CCCC2)N(C)C(=O)C2(CCCC2)NC(=O)[C@@H]2CCCN2C(=O)[C@H](CCc2ccc(C(F)(F)F)c(Cl)c2)NC(=O)[C@@H](C)N(C)C(=O)[C@H](Cc2ccc(C(F)(F)F)cc2)N(C)C(=O)[C@@H]2CCN2C(=O)[C@H](C)N(C)C1=O` [Compound 1482] (cyclo([Ac5c][NMeGly(cPent)][d(β3hA)][NMeL]I[NMeA][Aze][NMePhe(4-CF3)][dNMeA][hPhe(3-Cl-4-CF3)]P)), the IC50 was 88 nM.

For `CC[C@H](C)[C@@H]1NC(=O)[C@H](C)N(C)C(=O)C[C@@H](C)NC(=O)[C@H](C2CCCC2)N(C)C(=O)C2(CCCC2)NC(=O)[C@@H]2CCCN2C(=O)[C@H](CCc2ccc(C(F)(F)F)c(Cl)c2)NC(=O)CN(C)C(=O)[C@H](Cc2ccc(C)cc2)N(C)C(=O)CN(C)C(=O)CN(C)C1=O` [Compound 1485] (cyclo([Ac5c][NMeGly(cPent)][d(β3hA)][NMeA]I[Sar][Sar][NMePhe(4-Me)][Sar][hPhe(3-Cl-4-CF3)]P)), the IC50 turned out to be 0.84 nM.

As to `CC[C@H](C)[C@@H]1NC(=O)[C@H](C)N(C)C(=O)C[C@@H](C)NC(=O)[C@H](C2CCCC2)N(C)C(=O)C2(CCC2)NC(=O)[C@@H]2CCCN2C(=O)[C@H](CCc2ccc(C(F)(F)F)c(Cl)c2)NC(=O)CN(C)C(=O)[C@H](Cc2ccc(C(F)(F)F)cc2)N(C)C(=O)CN(C)C(=O)CN(C)C1=O` [Compound 1486] (cyclo([Ac4c][NMeGly(cPent)][d(β3hA)][NMeA]I[Sar][Sar][NMePhe(4-CF3)][Sar][hPhe(3-Cl-4-CF3)]P)), the IC50 worked out at 0.5 nM.

In the case of `CC[C@H](C)[C@@H]1NC(=O)[C@H](CC(C)C)N(C)C(=O)C[C@@H](C)NC(=O)[C@H](CC(C)C)N(C)C(=O)C2(CCCC2)NC(=O)[C@H](COCC(=O)NC(C)(C)C)N(C)C(=O)[C@H](CCc2ccc(C(F)(F)F)c(Cl)c2)NC(=O)CN(C)C(=O)[C@H](COCCC(C)C)N(C)C(=O)CN(C)C(=O)CN(C)C1=O` [Compound 1492] (cyclo([Ac5c][NMeL][d(β3hA)][NMeL]I[Sar][Sar][NMeS](Isopentyl)[Sar][hPhe(3-Cl-4-CF3)][NMeS](CH2CONHtBu))), the half-inhibitory concentration (IC50) was 240 nM.

In the case of `CC[C@H](C)[C@@H]1NC(=O)[C@H](CC(C)C)N(C)C(=O)C[C@@H](C)NC(=O)[C@H](C2CCCC2)N(C)C(=O)C2(CCCC2)NC(=O)[C@@H]2CCCN2C(=O)[C@H](CCc2ccc(C(F)(F)F)c(Cl)c2)NC(=O)CN(C)C(=O)[C@H](Cc2ccc(C(F)(F)F)cc2)N(C)C(=O)[C@@H]2CCN2C(=O)CN(C)C1=O` [Compound 1496] (cyclo([Ac5c][NMeGly(cPent)][d(β3hA)][NMeL]I[Sar][Aze][NMePhe(4-CF3)][Sar][hPhe(3-Cl-4-CF3)]P)), the IC50 turned out to be 2 nM.

For the molecule `CC[C@H](C)[C@@H]1NC(=O)[C@H](C)N(C)C(=O)C[C@@H](C)NC(=O)[C@H](C2CCCC2)N(C)C(=O)C2(CCCC2)NC(=O)[C@@H]2CCCN2C(=O)[C@H](CCc2ccc(C(F)(F)F)c(Cl)c2)NC(=O)[C@@H](C)N(C)C(=O)[C@H](Cc2ccc(C(F)(F)F)cc2)N(C)C(=O)[C@@H]2CCN2C(=O)[C@H](C)N(C)C1=O` [Compound 1497] (cyclo([Ac5c][NMeGly(cPent)][d(β3hA)][NMeA]I[NMeA][Aze][NMePhe(4-CF3)][dNMeA][hPhe(3-Cl-4-CF3)]P)), the IC50 turned out to be 25 nM.

Take `CC[C@H](C)[C@@H]1NC(=O)[C@H](CC(C)C)N(C)C(=O)C[C@@H](C)NC(=O)[C@H](C2CCCC2)N(C)C(=O)C2(CCCC2)NC(=O)[C@@H]2CCCN2C(=O)[C@H](CCc2ccc(C(F)(F)F)c(Cl)c2)NC(=O)CN(C)C(=O)[C@H](CC2CCCCC2)N(C)C(=O)[C@@H]2CCN2C(=O)CN(C)C1=O` [Compound 1499] (cyclo([Ac5c][NMeGly(cPent)][d(β3hA)][NMeL]I[Sar][Aze][NMeCha][Sar][hPhe(3-Cl-4-CF3)]P)): the IC50 was found to be 19 nM.

On to `CC[C@H](C)[C@@H]1NC(=O)[C@H](CC(C)C)N(C)C(=O)C[C@@H](C)NC(=O)[C@H](C2CCCC2)N(C)C(=O)C2(CCCC2)NC(=O)[C@@H]2CCCN2C(=O)[C@H](CCc2ccc(C(F)(F)F)c(Cl)c2)NC(=O)[C@@H](C)N(C)C(=O)[C@H](Cc2ccc(C)cc2)N(C)C(=O)[C@@H]2CCN2C(=O)[C@H](C)N(C)C1=O` [Compound 1504] (cyclo([Ac5c][NMeGly(cPent)][d(β3hA)][NMeL]I[NMeA][Aze][NMePhe(4-Me)][dNMeA][hPhe(3-Cl-4-CF3)]P)), for which the 50% inhibitory concentration (IC50) came to 57 nM.

In the case of `CCCCN1CC(=O)N(C)CC(=O)N(C)[C@@H](COCCC(C)C)C(=O)N(C)CC(=O)N[C@@H](CCc2ccc(C(F)(F)F)c(Cl)c2)C(=O)N(C)[C@@H](COCC(C)(C)O)C(=O)NC(C)(C)C(=O)N(C)[C@@H](C(C)C)C(=O)N[C@H](C)CC(=O)N(C)[C@@H](CC(C)C)C(=O)N[C@@H]([C@@H](C)CC)C1=O` [Compound 1505] (cyclo([Aib][NMeV][d(β3hA)][NMeL]I[NBuGly][Sar][NMeS](Isopentyl)[Sar][hPhe(3-Cl-4-CF3)][NMeS](CH2CMe2OH))), the IC50 was 220 nM.

Take `CC[C@H](C)[C@@H]1NC(=O)[C@H](C)N(C)C(=O)C[C@@H](C)NC(=O)[C@H](C2CCCC2)N(C)C(=O)C2(CCCC2)NC(=O)[C@@H]2CCCN2C(=O)[C@H](CCc2ccc(C(F)(F)F)c(Cl)c2)NC(=O)CN(C)C(=O)[C@H](Cc2ccc(C(F)(F)F)cc2)N(C)C(=O)[C@@H]2CCN2C(=O)[C@H](C)N(C)C1=O` [Compound 1512] (cyclo([Ac5c][NMeGly(cPent)][d(β3hA)][NMeA]I[NMeA][Aze][NMePhe(4-CF3)][Sar][hPhe(3-Cl-4-CF3)]P)): the IC50 worked out at 1.2 nM.

For `CC[C@H](C)[C@@H]1NC(=O)[C@H](C)N(C)C(=O)C[C@@H](C)NC(=O)[C@H](C2CCCC2)N(C)C(=O)C2(CCCC2)NC(=O)[C@@H]2CCCN2C(=O)[C@H](CCc2ccc(C(F)(F)F)c(Cl)c2)NC(=O)CN(C)C(=O)[C@H](Cc2ccc(C)cc2)N(C)C(=O)[C@@H]2CCN2C(=O)[C@H](C)N(C)C1=O` [Compound 1514] (cyclo([Ac5c][NMeGly(cPent)][d(β3hA)][NMeA]I[NMeA][Aze][NMePhe(4-Me)][Sar][hPhe(3-Cl-4-CF3)]P)), the IC50 was determined as 1 nM.

Regarding `CC[C@H](C)[C@@H]1NC(=O)[C@H](CC(C)C)N(C)C(=O)C[C@@H](C)NC(=O)[C@H](CC(C)C)N(C)C(=O)C(C)(C)NC(=O)[C@H](COCC(C)(C)O)N(C)C(=O)[C@H](CCc2ccc(C(F)(F)F)c(Cl)c2)NC(=O)CN(CC)C(=O)[C@H](COCCC(C)C)N(C)C(=O)CN(C)C(=O)CN(C)C1=O` [Compound 1516] (cyclo([Aib][NMeL][d(β3hA)][NMeL]I[Sar][Sar][NMeS](Isopentyl)[NEtG][hPhe(3-Cl-4-CF3)][NMeS](CH2CMe2OH))), the IC50 turned out to be 340 nM.

The record behind these values is patent publication US20240148821A1, “PHARMACEUTICAL USE OF CYCLIC PEPTIDE COMPOUND” (CHUGAI SEIYAKU KABUSHIKI KAISHA, priority 2021, published 2024).
